Data from article PMC6978363, “Chaperone mediated detection of small molecule target binding in cells” (Nature Communications, 2020).

Experiments:
Test in all cases: biochemical
Conditions in all cases: read-out: % Inhibition (at 10mM)
Aurora_A = target: T1, Aurora_A (Homo sapiens, UniProt O14965)
T1 construct: gene AURKA

CK1_alpha1 = target: T2, CK1_alpha1 (Homo sapiens, UniProt P48729)
T2 construct: gene CSNK1A1

CK1_epsilon1 = target: T3, CK1_epsilon1 (Homo sapiens, UniProt P49674)
T3 construct: gene CSNK1E; epsilon 1

CK1_gamma2 = target: T4, CK1_gamma2 (Homo sapiens, UniProt P78368)
T4 construct: gene CSNK1G2

CK2_alpha1 = target: T5, CK2_alpha1 (Homo sapiens, UniProt P68400)
T5 construct: gene CSNK2A1

CamK1_gamma = target: T6, CamK1_gamma (Homo sapiens, UniProt Q96NX5)
T6 construct: gene CAMK1G

CamKII_delta = target: T7, CamKII_delta (Homo sapiens, UniProt Q13557)
T7 construct: gene CAMK2D

DCAMKL1 = target: T8, DCAMKL1 (Homo sapiens, UniProt O15075)
T8 construct: gene DCLK1

EphA1 = EphA1 (Homo sapiens, UniProt P21709)
EphA5 = EphA5 (Homo sapiens, UniProt P54756)
EphB1 = EphB1 (Homo sapiens, UniProt P54762)
FAK2 = target: T9, FAK2 (Homo sapiens, UniProt Q14289)
T9 construct: gene PTK2B

GRK2 = GRK2 (Homo sapiens, UniProt P25098)
Hyl = target: T10, Hyl (Homo sapiens, UniProt P42679)
T10 construct: gene MATK

IKK_epsilon = target: T11, IKK_epsilon (Homo sapiens, UniProt Q14164)
T11 construct: gene IKBKE

KSR2 = KSR2 (Homo sapiens, UniProt Q6VAB6)
MKNK1 = MKNK1 (Homo sapiens, UniProt Q9BUB5)
MLK1 = target: T12, MLK1 (Homo sapiens, UniProt P80192)
T12 construct: gene MAP3K9

MST2 = target: T13, MST2 (Homo sapiens, UniProt Q13188)
T13 construct: gene STK3

MST3 = target: T14, MST3 (Homo sapiens, UniProt Q9Y6E0)
T14 construct: gene STK24

NEK2 = NEK2 (Homo sapiens, UniProt P51955)
NEK4 = NEK4 (Homo sapiens, UniProt P51957)
PAK2 = PAK2 (Homo sapiens, UniProt Q13177)
PAK3 = PAK3 (Homo sapiens, UniProt O75914)
PDGFR_alpha = target: T15, PDGFR_alpha (Homo sapiens, UniProt P16234)
T15 construct: gene PDGFRA

PIM2 = PIM2 (Homo sapiens, UniProt Q9P1W9)
PKC_epsilon = target: T16, PKC_epsilon (Homo sapiens, UniProt Q02156)
T16 construct: gene PRKCE

PKD3 = target: T17, PKD3 (Homo sapiens, UniProt O94806)
T17 construct: gene PRKD3

Ros = target: T18, Ros (Homo sapiens, UniProt P08922)
T18 construct: gene ROS1

Rse = target: T19, Rse (Homo sapiens, UniProt Q06418)
T19 construct: gene TYRO3

SBK1 = SBK1 (Homo sapiens, UniProt Q52WX2)
SIK2 = SIK2 (Homo sapiens, UniProt Q9H0K1)
SRPK2 = SRPK2 (Homo sapiens, UniProt P78362)
Src_N1 = target: T20, Src_N1 (Homo sapiens, UniProt P12931)
T20 construct: gene SRC; isoform N1

TAO2 = target: T21, TAO2 (Homo sapiens, UniProt Q9UL54)
T21 construct: gene TAOK2

TYK2 = TYK2 (Homo sapiens, UniProt P29597)
eEF-2K = target: T22, eEF-2K (Homo sapiens, UniProt O00418)
T22 construct: gene EEF2K

T17 sequence (O94806 whole entry): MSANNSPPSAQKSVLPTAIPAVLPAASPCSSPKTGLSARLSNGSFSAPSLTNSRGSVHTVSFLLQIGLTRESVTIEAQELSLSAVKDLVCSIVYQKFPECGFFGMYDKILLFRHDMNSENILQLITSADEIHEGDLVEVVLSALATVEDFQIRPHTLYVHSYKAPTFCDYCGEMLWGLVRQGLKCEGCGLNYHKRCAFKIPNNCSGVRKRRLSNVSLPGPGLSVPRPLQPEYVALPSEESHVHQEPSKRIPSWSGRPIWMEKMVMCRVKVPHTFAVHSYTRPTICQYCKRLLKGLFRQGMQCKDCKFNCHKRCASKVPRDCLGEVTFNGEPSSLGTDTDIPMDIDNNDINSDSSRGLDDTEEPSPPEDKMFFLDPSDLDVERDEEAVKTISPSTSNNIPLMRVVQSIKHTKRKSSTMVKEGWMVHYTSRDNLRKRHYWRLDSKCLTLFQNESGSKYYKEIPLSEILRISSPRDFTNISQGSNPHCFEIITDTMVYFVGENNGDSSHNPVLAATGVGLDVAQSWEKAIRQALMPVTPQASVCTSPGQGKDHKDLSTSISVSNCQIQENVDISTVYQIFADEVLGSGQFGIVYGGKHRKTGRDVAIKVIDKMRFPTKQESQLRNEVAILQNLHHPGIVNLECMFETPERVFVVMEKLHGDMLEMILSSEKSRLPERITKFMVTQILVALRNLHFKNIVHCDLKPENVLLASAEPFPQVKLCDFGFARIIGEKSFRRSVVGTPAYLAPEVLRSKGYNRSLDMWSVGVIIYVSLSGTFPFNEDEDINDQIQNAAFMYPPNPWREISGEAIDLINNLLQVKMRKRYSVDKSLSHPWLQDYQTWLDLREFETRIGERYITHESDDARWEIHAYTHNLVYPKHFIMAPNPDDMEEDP
KSR2, sequence (Q6VAB6 whole entry): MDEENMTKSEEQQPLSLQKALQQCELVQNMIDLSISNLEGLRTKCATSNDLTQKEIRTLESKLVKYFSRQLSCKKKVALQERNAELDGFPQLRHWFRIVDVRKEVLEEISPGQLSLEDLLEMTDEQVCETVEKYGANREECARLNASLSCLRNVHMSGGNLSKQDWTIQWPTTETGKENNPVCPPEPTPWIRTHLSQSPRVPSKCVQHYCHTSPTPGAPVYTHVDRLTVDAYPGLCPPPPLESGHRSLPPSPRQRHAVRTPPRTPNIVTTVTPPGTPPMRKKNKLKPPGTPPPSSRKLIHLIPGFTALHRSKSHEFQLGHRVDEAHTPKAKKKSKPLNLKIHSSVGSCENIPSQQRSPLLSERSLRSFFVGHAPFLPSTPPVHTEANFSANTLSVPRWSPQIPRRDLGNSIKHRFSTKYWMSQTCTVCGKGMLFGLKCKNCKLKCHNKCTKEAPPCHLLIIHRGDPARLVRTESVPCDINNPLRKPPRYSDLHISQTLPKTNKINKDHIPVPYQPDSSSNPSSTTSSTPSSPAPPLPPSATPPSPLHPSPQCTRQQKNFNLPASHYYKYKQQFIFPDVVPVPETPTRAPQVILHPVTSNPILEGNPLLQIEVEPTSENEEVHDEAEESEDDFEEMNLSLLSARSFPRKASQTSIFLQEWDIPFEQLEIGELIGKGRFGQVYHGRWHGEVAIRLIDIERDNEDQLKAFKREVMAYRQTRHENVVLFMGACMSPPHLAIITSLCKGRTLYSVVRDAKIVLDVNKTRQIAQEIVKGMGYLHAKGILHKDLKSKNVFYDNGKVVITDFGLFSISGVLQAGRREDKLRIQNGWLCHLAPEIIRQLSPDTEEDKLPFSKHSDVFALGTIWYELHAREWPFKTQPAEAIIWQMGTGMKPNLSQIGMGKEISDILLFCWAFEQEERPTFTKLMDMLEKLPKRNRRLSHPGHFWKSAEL
T7 sequence (Q13557 whole entry): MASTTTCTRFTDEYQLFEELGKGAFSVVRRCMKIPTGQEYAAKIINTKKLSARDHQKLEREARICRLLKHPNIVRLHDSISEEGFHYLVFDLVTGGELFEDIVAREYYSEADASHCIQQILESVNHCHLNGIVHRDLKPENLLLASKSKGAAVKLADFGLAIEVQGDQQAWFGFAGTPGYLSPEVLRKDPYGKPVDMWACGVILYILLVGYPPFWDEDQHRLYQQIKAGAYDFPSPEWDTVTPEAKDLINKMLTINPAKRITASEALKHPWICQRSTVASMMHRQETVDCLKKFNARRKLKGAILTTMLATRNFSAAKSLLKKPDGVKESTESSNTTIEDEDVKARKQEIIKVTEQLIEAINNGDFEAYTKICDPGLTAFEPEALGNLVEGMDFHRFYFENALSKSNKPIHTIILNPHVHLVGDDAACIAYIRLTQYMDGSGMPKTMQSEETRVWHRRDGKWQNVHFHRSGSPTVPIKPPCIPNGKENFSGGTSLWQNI
T19 sequence (Q06418 whole entry): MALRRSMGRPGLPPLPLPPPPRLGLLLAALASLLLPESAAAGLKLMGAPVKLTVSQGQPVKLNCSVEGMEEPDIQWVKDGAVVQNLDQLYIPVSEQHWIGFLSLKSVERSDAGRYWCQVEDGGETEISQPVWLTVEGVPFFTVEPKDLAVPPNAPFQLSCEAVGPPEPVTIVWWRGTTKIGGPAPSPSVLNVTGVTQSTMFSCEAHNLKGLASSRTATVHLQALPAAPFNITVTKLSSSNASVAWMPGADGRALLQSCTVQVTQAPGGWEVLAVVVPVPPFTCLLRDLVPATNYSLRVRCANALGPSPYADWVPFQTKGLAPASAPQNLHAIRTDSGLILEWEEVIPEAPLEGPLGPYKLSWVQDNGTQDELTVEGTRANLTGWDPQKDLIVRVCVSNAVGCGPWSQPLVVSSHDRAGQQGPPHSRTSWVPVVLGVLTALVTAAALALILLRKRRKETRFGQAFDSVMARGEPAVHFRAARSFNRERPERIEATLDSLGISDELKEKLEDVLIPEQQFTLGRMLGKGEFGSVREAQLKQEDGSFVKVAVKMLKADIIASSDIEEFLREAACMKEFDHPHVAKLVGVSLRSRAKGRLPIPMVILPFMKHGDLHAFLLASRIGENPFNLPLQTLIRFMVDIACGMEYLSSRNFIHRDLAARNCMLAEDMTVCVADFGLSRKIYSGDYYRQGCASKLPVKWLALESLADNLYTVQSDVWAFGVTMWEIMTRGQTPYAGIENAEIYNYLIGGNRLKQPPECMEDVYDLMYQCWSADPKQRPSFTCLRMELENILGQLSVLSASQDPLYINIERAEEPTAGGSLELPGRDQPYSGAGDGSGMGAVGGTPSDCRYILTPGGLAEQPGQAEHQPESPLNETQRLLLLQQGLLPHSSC
SRPK2, sequence (P78362 whole entry): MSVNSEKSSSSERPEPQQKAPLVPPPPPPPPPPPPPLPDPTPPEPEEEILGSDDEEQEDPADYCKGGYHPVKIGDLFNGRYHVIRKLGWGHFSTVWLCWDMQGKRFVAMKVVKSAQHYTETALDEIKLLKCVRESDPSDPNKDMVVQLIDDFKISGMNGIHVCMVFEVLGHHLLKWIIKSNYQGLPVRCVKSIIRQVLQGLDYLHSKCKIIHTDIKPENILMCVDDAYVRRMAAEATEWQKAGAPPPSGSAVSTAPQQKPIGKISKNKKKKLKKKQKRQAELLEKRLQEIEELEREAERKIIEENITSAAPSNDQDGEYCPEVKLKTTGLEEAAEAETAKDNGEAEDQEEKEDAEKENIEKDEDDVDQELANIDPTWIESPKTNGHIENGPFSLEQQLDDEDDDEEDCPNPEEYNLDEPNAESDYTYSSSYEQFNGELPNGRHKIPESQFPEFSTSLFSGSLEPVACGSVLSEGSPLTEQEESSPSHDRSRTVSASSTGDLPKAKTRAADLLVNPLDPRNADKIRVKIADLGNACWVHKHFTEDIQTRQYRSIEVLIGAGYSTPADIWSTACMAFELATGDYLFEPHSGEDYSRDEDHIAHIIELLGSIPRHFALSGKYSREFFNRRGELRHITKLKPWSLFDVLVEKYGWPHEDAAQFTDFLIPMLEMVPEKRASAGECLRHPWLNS
T3 sequence (P49674 whole entry): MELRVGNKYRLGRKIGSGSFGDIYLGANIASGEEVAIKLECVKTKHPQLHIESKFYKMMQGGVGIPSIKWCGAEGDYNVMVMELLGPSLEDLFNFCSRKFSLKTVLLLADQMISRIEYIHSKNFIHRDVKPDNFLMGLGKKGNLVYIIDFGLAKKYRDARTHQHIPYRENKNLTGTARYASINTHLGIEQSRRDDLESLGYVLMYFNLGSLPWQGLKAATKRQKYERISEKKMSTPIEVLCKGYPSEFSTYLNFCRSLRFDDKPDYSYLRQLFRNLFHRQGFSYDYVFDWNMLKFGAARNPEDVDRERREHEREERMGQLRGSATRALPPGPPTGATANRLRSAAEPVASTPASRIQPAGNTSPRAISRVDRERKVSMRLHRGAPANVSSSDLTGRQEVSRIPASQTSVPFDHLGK
T5 sequence (P68400 whole entry): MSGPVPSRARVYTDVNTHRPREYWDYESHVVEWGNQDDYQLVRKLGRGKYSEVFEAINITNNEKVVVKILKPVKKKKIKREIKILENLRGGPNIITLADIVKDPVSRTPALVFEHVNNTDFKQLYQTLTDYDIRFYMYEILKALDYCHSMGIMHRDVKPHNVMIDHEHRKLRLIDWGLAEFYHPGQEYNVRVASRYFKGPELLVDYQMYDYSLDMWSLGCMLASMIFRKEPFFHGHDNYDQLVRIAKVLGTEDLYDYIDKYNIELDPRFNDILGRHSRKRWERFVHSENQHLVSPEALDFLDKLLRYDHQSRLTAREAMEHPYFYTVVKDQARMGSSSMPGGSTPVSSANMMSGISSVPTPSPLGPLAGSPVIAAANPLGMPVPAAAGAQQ
PIM2, sequence (Q9P1W9 whole entry): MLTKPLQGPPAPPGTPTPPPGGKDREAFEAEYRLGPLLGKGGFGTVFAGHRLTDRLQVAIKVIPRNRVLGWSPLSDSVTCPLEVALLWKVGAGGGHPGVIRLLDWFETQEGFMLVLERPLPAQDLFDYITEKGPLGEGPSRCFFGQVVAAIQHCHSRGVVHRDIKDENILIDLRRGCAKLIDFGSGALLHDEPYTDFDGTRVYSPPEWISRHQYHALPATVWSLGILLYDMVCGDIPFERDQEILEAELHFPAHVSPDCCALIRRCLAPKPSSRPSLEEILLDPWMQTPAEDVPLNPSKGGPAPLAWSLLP

CC(C)(O)CC(=O)NCCn1ccc2ncnc(Nc3ccc(Oc4cccc(C(F)(F)F)c4)c(Cl)c3)c21 [TAK-285]
inhibition (Aurora_A): 17.5% | inhibition (CK1_alpha1): 5.5% | inhibition (CK1_epsilon1): 10.5% | inhibition (CK1_gamma2): -5% | inhibition (CK2_alpha1): -2.5% | inhibition (CamK1_gamma): 10% | inhibition (CamKII_delta): 6% | inhibition (DCAMKL1): -2.5% | inhibition (EphA1): 7% | inhibition (EphA5): 2% | inhibition (EphB1): -6% | inhibition (FAK2): 4% | inhibition (GRK2): 0% | inhibition (Hyl): -2.5% | inhibition (IKK_epsilon): 5.5% | inhibition (KSR2): 0% | inhibition (MKNK1): 6% | inhibition (MLK1): 6.5% | inhibition (MST2): 6% | inhibition (MST3): 7% | inhibition (NEK2): 4% | inhibition (NEK4): 8.5% | inhibition (PAK2): 10.5% | inhibition (PAK3): 12% | inhibition (PDGFR_alpha): 1.5% | inhibition (PIM2): 5.5% | inhibition (PKC_epsilon): 16% | inhibition (PKD3): 31.5% | inhibition (Ros): 7.5% | inhibition (Rse): 10.5% | inhibition (SBK1): 8.5% | inhibition (SIK2): 9.5% | inhibition (SRPK2): 2.5% | inhibition (Src_N1): 23% | inhibition (TAO2): -5% | inhibition (TYK2): 4.5% | inhibition (eEF-2K): 7%
